According to US20220017572A1, “GEMINOID LIPOPEPTIDE COMPOUNDS AND THEIR USES” (Erasmus University Medical Center Rotterdam, priority 2016, published 2022):
Residues, ends and D or L forms follow the SMILES beside them.

How the values were obtained:
dengue 2 protease [1] = target: T1, dengue 2 protease (Dengue virus type 2, UniProt P14340); assay: Dengue 2 protease inhibition, hydrolysis of Z-RR-MCA; format: biochemical, dengue 2 virus; set-up: Activity with inhibitors: unit not given here; conditions: for activity at 5 µM: 5 μM inhibitor; for activity at 10 µM: 10 μM inhibitor; for activity at 15 µM: 15 μM inhibitor; for activity at 40 µM: 40 μM inhibitor; for activity at 2.5 µM: 2.5 μM inhibitor
T1 construct: The active site of the dengue protease is in the N-terminal part of NS3
T1 sequence (P14340 1476-1653): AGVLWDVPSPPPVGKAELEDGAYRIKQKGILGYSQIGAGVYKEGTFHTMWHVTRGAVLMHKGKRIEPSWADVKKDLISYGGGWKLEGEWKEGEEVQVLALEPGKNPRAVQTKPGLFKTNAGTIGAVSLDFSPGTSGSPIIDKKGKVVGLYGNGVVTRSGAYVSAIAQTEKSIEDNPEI
Experimental: The active site of the dengue protease is in the N-terminal part of NS3 which is also a serine protease with catalytic triad Asp79-His51-Ser135, but requires […] (CF40) for activity; the inhibition reported here was studied on a […] (CF40-GGGGSGGGG-NS3; (SEQ ID NO:54)) which has also been structurally characterized [Erbel et al., 2006; Luo et al. 2008].
(§1) Substrate was added in a concentration 10 times the Km, and the inhibitor compounds of type C (C16-KGnK-C16, C16-KAnK-C16, and C16-RAnR-C16) were added in increasing concentrations (1.0, 5.0, 10.0, 20.0, 40.0 μL) from a stock solution of 2 mg in 1 mL DMSO. The residual activity was measured in a Hitachi F2500 spectrofluorimeter, and plots were fitted using the Grafit® software (Erithracus Software, Horley, Surrey, UK). All the assays were calculated by the Morrison equation for competitive inhibition (eq. 1, [Morrison, 1969]). The amount of substrate used for the tight binding titration experiments follow all the requirements, where [S]<<Km for all enzymes, so the Kiapp=Ki.
(§2) Range of Proteases Inhibited by Geminoids, Determination of Ki with Z-RR-MCA (Dengue 2 Protease) and Ac-RVRR-MCA (Furin) (SEQ ID NO:60).

dengue 2 protease [2] = target: T1, dengue 2 protease; assay: as above; format: biochemical, dengue 2 virus; set-up: unit not given here; conditions: 10 μM Z-RR-MCA, pH 9.0, 37° C., initial activity in UAF/min
dengue 2 protease [3] = target: T1, dengue 2 protease; assay: Dengue 2 protease inhibition in presence of Triton X-100 (detergent test, Nature Protocol); format: biochemical, dengue 2 virus; conditions: 0.05% Triton X-100; for Activity with 0.05% Triton: initial activity in UAF/min
Text: A further investigation of the interactions of the geminoid inhibitors with biological membranes and with membrane-bound proteases is needed. […] The preparation and tests of peptides symmetrically, asymmetrically and singly alkylated with saturated, short (C6), and unsaturated (C18:1) alkyl tails are in progress.

DENV2 protease replicon = DENV2 protease replicon assay; format: cell-based; conditions: lowest concentration with observed activity in replicon assay
trypsin = target: T2, trypsin (Bos taurus, UniProt P00760); assay: Trypsin inhibition, fluorimetric enzyme assay; format: biochemical; conditions: for remaining activity at 15 µM: 15 μM inhibitor; for remaining activity at 40 µM: 40 μM inhibitor; for remaining activity at 80 µM: 80 μM inhibitor
T2 construct: gene PRSS1
T2 sequence (P00760 24-246): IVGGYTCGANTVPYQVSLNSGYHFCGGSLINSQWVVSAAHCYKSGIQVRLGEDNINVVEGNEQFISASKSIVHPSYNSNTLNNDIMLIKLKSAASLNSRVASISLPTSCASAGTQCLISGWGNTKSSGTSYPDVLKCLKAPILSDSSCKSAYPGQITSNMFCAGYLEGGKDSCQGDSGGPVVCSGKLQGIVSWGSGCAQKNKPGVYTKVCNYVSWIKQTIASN
Experimental: as §1, with “The enzyme was dissolved in 1 mL MES buffer (10 mM), 1 mM CaCl2, pH 7.0 at 36.5° C. Substrate” for “Substrate”
The first group of gemini-like peptide amphiphiles to be screened was that of C16-K(G or A)nK-C16 (compound type C, with R1=n-C15H31, R2=n-C16H33). […] The results of the Ki determination for trypsin, dengue 2 protease, and human furin are given in Table 1A; some general data for the inhibition by this type of compounds are given in Table 1B. For most compounds in Table 1 the Ki could be derived from competitive inhibition experiments. Judging from the Ki values with the relatively simple substrate Z-RR-MCA, the best inhibitors for dengue 2 protease contain alanine (A) rather than glycine (G).

human furin = human furin (Homo sapiens, UniProt P09958); assay: Human furin inhibition, hydrolysis of Ac-RVRR-MCA; format: biochemical; conditions: for activity at 5 µM: 5 μM inhibitor; for activity at 10 µM: 10 μM inhibitor; for activity at 15 µM: 15 μM inhibitor; for activity at 40 µM: 40 μM inhibitor; for activity at 2.5 µM: 2.5 μM inhibitor; for Ki: 10 mM Mes.NaOH, pH 7.0, 2.35 μM Ac-RVRR-MCA, 37° C., read-out: Ki hFurin
Sequence of human furin (P09958 108-794): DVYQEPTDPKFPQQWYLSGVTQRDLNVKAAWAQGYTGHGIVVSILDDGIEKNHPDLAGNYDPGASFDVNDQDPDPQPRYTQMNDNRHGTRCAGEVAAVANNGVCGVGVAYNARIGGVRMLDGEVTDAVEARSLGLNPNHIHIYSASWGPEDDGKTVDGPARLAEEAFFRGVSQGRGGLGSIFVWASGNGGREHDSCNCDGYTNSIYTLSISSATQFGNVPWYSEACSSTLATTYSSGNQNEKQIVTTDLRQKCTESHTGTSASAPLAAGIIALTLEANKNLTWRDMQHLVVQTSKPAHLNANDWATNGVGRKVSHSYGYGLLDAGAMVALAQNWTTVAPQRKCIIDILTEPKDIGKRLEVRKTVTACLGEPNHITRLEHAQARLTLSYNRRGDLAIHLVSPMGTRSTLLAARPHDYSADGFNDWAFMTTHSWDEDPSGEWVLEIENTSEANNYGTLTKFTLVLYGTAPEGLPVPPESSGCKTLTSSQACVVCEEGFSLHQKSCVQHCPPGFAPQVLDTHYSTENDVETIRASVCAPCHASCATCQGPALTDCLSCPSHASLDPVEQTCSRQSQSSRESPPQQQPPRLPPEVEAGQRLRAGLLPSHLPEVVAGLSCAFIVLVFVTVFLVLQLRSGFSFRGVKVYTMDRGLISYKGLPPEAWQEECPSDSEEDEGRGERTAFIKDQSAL
Experimental: as §1, with “The enzyme was dissolved in 1 mL MES buffer (10 mM), 1 mM CaCl2, pH 7.0 at 36.5° C. Substrate” for “Substrate”
However, for furin we used a correction of Ki app, where [S]˜Km (eq. 2).
as §2

thrombin = thrombin (Homo sapiens, UniProt P00734); assay: Thrombin inhibition, fluorimetric enzyme assay; format: biochemical; conditions: 36.5° C., read-out: Residual Activity (%) Thrombin
Experimental: as §1, with “The enzyme was dissolved in 1 mL MES buffer (10 mM), 1 mM CaCl2, pH 7.0 at 36.5° C. Substrate” for “Substrate”, “Kiapp=Ki. […]” for “Kiapp=Ki.”

DENV2 protease = target: T3, DENV2 protease (Dengue virus type 2, UniProt P14340); assay: DENV2 protease biochemical assay; conditions: 50 μM inhibitor
T3 construct: The active site of the dengue protease is in the N-terminal part of NS3
T3 sequence (P14340 1476-1653): as the sequence (P14340 1476-1653) above
T3 sequence (P14340 1398-1437): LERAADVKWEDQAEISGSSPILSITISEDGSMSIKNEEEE

[4] = 36.5° C., read-out: Residual Activity (%) Trypsin

Compound | Ki (dengue 2 protease [1]) | Activity with inhibitors (dengue 2 protease [2]; 20 μM of inhibitor) | % recovery in presence of Triton (dengue 2 protease [3]; 20 μM of inhibitor) | Activity with 0.05% Triton (dengue 2 protease [3]; 20 μM of inhibitor) | Activity with inhibitors (dengue 2 protease [2]; 30 μM of inhibitor) | % recovery in presence of Triton (dengue 2 protease [3]; 30 μM of inhibitor) | Activity with 0.05% Triton (dengue 2 protease [3]; 30 μM of inhibitor) | remaining activity at 15 µM (trypsin; [4]) | activity at 5 µM (human furin; 36.5° C.) | activity at 10 µM (human furin; 36.5° C.) | activity at 15 µM (human furin; 36.5° C.) | activity at 40 µM (human furin; 36.5° C.) | activity at 5 µM (dengue 2 protease [1]; 36.5° C.) | activity at 10 µM (dengue 2 protease [1]; 36.5° C.) | activity at 15 µM (dengue 2 protease [1]; 36.5° C.) | activity at 40 µM (dengue 2 protease [1]; 36.5° C.) | other results
CCCCCCCCCCCCCCCCNC(=O)[C@H](CCCNC(=N)N)NC(=O)[C@H](CCCNC(=N)N)NC(=O)CCCCCCCCCCCCCCC [C16RRC16, n-C15H31C(O)-Arg-Arg-(n-C16H33).2TFA] | 800 nM | 48 | 74% | 148 | – | – | – | – | – | – | – | – | – | – | – | – | –
CCCCCCCCCCCCCCCCNC(=O)[C@H](CCCNC(=N)N)NC(=O)[C@H](C)NC(=O)[C@H](C)NC(=O)[C@H](C)NC(=O)[C@H](C)NC(=O)[C@H](CCCNC(=N)N)NC(=O)CCCCCCCCCCCCCCC [C16RA4RC16, n-C15H31C(O)-Arg-(la)4-Arg-(n-C16H33).2TFA] (HELM PEPTIDE1{[CCCCCCCCCCCCCCCC(=O)[*:2]].R.A.A.A.A.R.[CCCCCCCCCCCCCCCCN[*:1]]}$$$$V2.0) | 1400 nM | 22 | 68% | 164 | – | – | – | – | – | – | – | – | – | – | – | – | –
CCCCCCCCCCCCCCCCNC(=O)[C@H](CCCNC(=N)N)NC(=O)[C@H](C)NC(=O)[C@H](C)NC(=O)[C@H](CCCNC(=N)N)NC(=O)CCCCCCCCCCCCCCC [C16RA2RC16, n-C15H31C(O)-Arg-(Ala)2-Arg-(n-C16H33).2TFA] (HELM PEPTIDE1{[CCCCCCCCCCCCCCCC(=O)[*:2]].R.A.A.R.[CCCCCCCCCCCCCCCCN[*:1]]}$$$$V2.0) | 2100 nM | – | – | – | 0 | 61% | 128 | – | – | – | – | – | – | – | – | – | –
CCCCCCCCCCCCNC(=O)[C@H](CCCCN)NC(=O)[C@H](C)NC(=O)[C@H](C)NC(=O)[C@H](CCCCN)NC(=O)CCCCCCCCCCC [C12KA2KC12, n-C11H23C(O)-Lys-(Ala)2-Lys-(n-C12H25).2TFA] (HELM PEPTIDE1{[CCCCCCCCCCCC(=O)[*:2]].K.A.A.K.[CCCCCCCCCCCCN[*:1]]}$$$$V2.0) | 11600 nM | 5 | 95% | 216 | – | – | – | – | – | – | – | – | – | – | – | – | –
CCCCCCCCCCCCCCCCNC(=O)[C@H](CCCCN)NC(=O)CNC(=O)[C@H](CCCCN)NC(=O)CCCCCCCCCCCCCCC [C16-KGK-C16, C15H31CO-KGK-NH—C16H33] | 1560 nM | – | – | – | – | – | – | 76% | 53% | 18% | 7% | 0% | 75% | 54% | 40% | 2% | Replicon activity [μM] (1) (DENV2 protease replicon): 1.0 µM; Ki (trypsin): 41600 nM; remaining activity at 55 µM (trypsin; 55 μM inhibitor, 36.5° C., read-out: Residual Activity (%) Trypsin): 40%; remaining activity at 85 µM (trypsin; 85 μM inhibitor, 36.5° C., read-out: Residual Activity (%) Trypsin): 24%; activity at 20 µM (human furin; 20 μM inhibitor, 36.5° C.): 4%; activity at 20 µM (dengue 2 protease [1]; 20 μM inhibitor, 36.5° C.): 29%; Activity with inhibitors (dengue 2 protease [1]; 25 μM of inhibitor, 10 μM Z-RR-MCA, pH 9.0, 37° C., initial activity in UAF/min): 50; remaining activity at 15 µM (thrombin; 15 μM inhibitor): 75%; remaining activity at 55 µM (thrombin; 55 μM inhibitor): 61%; remaining activity at 85 µM (thrombin; 85 μM inhibitor): 40%; inhibition at 50 µM (DENV2 protease): 103%; % recovery in presence of Triton (dengue 2 protease [3]; 25 μM of inhibitor): 48%; Activity with 0.05% Triton (dengue 2 protease [3]; 25 μM of inhibitor): 90
CCCCCCCCCCCCCCCCNC(=O)[C@H](CCCCN)NC(=O)[C@H](C)NC(=O)[C@H](C)NC(=O)[C@H](C)NC(=O)[C@H](CCCCN)NC(=O)CCCCCCCCCCCCCCC [C16-KAAAK-C16] (HELM PEPTIDE1{[CCCCCCCCCCCCCCCC(=O)[*:2]].K.A.A.A.K.[CCCCCCCCCCCCCCCCN[*:1]]}$$$$V2.0) | 1410 nM | – | – | – | 0 | 50% | 91 | 79% | 56% | 24% | 10% | 0% | 85% | 75% | 64% | 25% | Ki (trypsin): 40300 nM; remaining activity at 40 µM (trypsin; [4]): 54%; remaining activity at 80 µM (trypsin; [4]): 40%; activity at 2.5 µM (human furin; 36.5° C.): 73%; Ki (human furin): 1720 nM; activity at 2.5 µM (dengue 2 protease [1]; 36.5° C.): 91%
CCCCCCCCCCCCNC(=O)[C@H](CCCCN)NC(=O)[C@H](CCCCN)NC(=O)CCCCCCCCCCC [C12KKC12, n-C11H23C(O)-Lys-Lys-(n-C12H25).2TFA] | 132000 nM | – | – | – | 0 | 82% | 180 | – | – | – | – | – | – | – | – | – | –
CCCCCCCCCCCCCCCCNC(=O)[C@H](CCCCN)NC(=O)[C@H](C)NC(=O)[C@H](C)NC(=O)[C@H](C)NC(=O)[C@H](C)NC(=O)[C@H](CCCCN)NC(=O)CCCCCCCCCCCCCCC [C16-KAAAAK-C16] (HELM PEPTIDE1{[CCCCCCCCCCCCCCCC(=O)[*:2]].K.A.A.A.A.K.[CCCCCCCCCCCCCCCCN[*:1]]}$$$$V2.0) | 2400 nM | 47 | 67% | 133 | – | – | – | 73% | 59% | 52% | 45% | 0% | 90% | 85% | 79% | 45% | remaining activity at 40 µM (trypsin; [4]): 35%; remaining activity at 80 µM (trypsin; [4]): 20%; activity at 2.5 µM (human furin; 36.5° C.): 70%; Ki (human furin): 1750 nM; activity at 2.5 µM (dengue 2 protease [1]; 36.5° C.): 94%
